PubChem BioAssay (NCI)
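Compound exposure: 48 hours, 5 concentrations, 96-well plates. Definition used: TGI = concentration required for complete inhibition of growth.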

system: SK-MEL-5 melanoma; assay: DTP human tumour cell line panel, 48 h

Structure (SMILES) | TGI [µM]
Cc1nn(C(=O)c2ccc(Cl)cc2)c2c1C(c1ccccc1[N+](=O)[O-])SC(N)=N2 (configuration not stated) | > 10
C=CCc1cccc2cc(C(=O)Nc3ccccc3)c(=N)oc12 | > 100

system: HT29 colon; assay: DTP human tumour cell line panel, 48 h

Structure (SMILES) | TGI [µM]
CN(C)C(=S)/N=c1\ssc(=S)n1Cc1ccccc1 | 11.7
Cn1c(O)c(C=Nc2ccccc2[N+](=O)[O-])c(=O)n(C)c1=O | > 100
COc1cc(-c2cc(-c3ccccc3)nc(-c3c(OC)ccc4c(C)cc(=O)oc34)c2)cc(OC)c1OC | > 100
CCOC(=O)c1nc2ccccc2nc1NCc1cc(OC)c(OC)c(OC)c1 | > 100
C[C@H](NC(=O)c1ccc(CNC(=O)/C=C/c2cccc(Oc3ccccc3)c2)cc1)c1ccccc1 | > 100
CCN(CC)/C(Sc1ccccc1)=C(\C(Cl)=C(Cl)Cl)[N+](=O)[O-] | 45.8
Brc1cc(CCOC2CCCCO2)c(-c2sccc2CCOC2CCCCO2)s1 (configuration not stated) | > 100
CC(C)=CCC/C(=C/CC/C(=C\CCc1ccoc1)C(=O)O)C(=O)O | > 100
CCCCc1ccc(Nc2nc(SC)c3[nH]cnc3n2)cc1 | > 100
Cc1cccc(CP(Cc2cccc(C)c2)CC2(Cp3c4ccccc4c4ccccc43)COC2)c1 | > 100
COc1cc(OC)nc(-n2c(N)c(C#N)c3ccc([N+](=O)[O-])cc3c2=O)n1 | > 100
COC(=O)c1sc(=S)sc1SCc1ccc(CSc2sc(=S)sc2C(=O)OC)cc1 | > 100
CCOC(=O)c1cn2c(n1)sc1c(Cl)c(Cl)ccc12 | > 45.6
CN1CCN(c2ncc3c(n2)sc2c(=O)n(-c4ccccc4)cnc23)CC1 | > 100
COc1ccc(C(=O)c2sc(Nc3ccc(Cl)cc3)nc2N)cc1 | > 64.9
Cc1cn(C2CC(O)C(COC(=O)NCCC(F)(F)C(F)(F)C(F)(F)C(F)(F)F)O2)c(=O)[nH]c1=O (configuration not stated) | > 100
CC(C)(C)OC(=O)N1CCC(C(=O)O)CC1 | > 100
C/C=C\C(CC(=O)NCCC1CN(S(=O)(=O)c2ccc(C)cc2)c2ccccc21)CC(=O)OC (configuration not stated) | > 100
CN(C)CCN(C)c1ccc2c(=O)n(CCN(C)C)c(=O)n3c4ccccc4c(=O)c1c23 | 3.73
O=C(CCc1ccc(O)c(O)c1)NCCc1cc(O)cc(O)c1 | > 100
Cc1nn(C(=O)c2ccc(Cl)cc2)c2c1C(c1ccccc1[N+](=O)[O-])SC(N)=N2 (configuration not stated) | > 10
C=CCc1cccc2cc(C(=O)Nc3ccccc3)c(=N)oc12 | > 100

system: SW-620 colon; assay: DTP human tumour cell line panel, 48 h

Structure (SMILES) | TGI [µM]
CN(C)C(=S)/N=c1\ssc(=S)n1Cc1ccccc1 | > 46.4
Cn1c(O)c(C=Nc2ccccc2[N+](=O)[O-])c(=O)n(C)c1=O | > 100
COc1cc(-c2cc(-c3ccccc3)nc(-c3c(OC)ccc4c(C)cc(=O)oc34)c2)cc(OC)c1OC | > 100
CCOC(=O)c1nc2ccccc2nc1NCc1cc(OC)c(OC)c(OC)c1 | > 100
C[C@H](NC(=O)c1ccc(CNC(=O)/C=C/c2cccc(Oc3ccccc3)c2)cc1)c1ccccc1 | > 100
CCN(CC)/C(Sc1ccccc1)=C(\C(Cl)=C(Cl)Cl)[N+](=O)[O-] | 40.3
Brc1cc(CCOC2CCCCO2)c(-c2sccc2CCOC2CCCCO2)s1 (configuration not stated) | > 100
CC(C)=CCC/C(=C/CC/C(=C\CCc1ccoc1)C(=O)O)C(=O)O | > 100
CCCCc1ccc(Nc2nc(SC)c3[nH]cnc3n2)cc1 | > 100
Cc1cccc(CP(Cc2cccc(C)c2)CC2(Cp3c4ccccc4c4ccccc43)COC2)c1 | > 100
COc1cc(OC)nc(-n2c(N)c(C#N)c3ccc([N+](=O)[O-])cc3c2=O)n1 | > 100
COC(=O)c1sc(=S)sc1SCc1ccc(CSc2sc(=S)sc2C(=O)OC)cc1 | > 100
CCOC(=O)c1cn2c(n1)sc1c(Cl)c(Cl)ccc12 | > 100
CN1CCN(c2ncc3c(n2)sc2c(=O)n(-c4ccccc4)cnc23)CC1 | > 100
COc1ccc(C(=O)c2sc(Nc3ccc(Cl)cc3)nc2N)cc1 | > 100
Cc1cn(C2CC(O)C(COC(=O)NCCC(F)(F)C(F)(F)C(F)(F)C(F)(F)F)O2)c(=O)[nH]c1=O (configuration not stated) | > 100
CC(C)(C)OC(=O)N1CCC(C(=O)O)CC1 | > 100
C/C=C\C(CC(=O)NCCC1CN(S(=O)(=O)c2ccc(C)cc2)c2ccccc21)CC(=O)OC (configuration not stated) | > 100
CN(C)CCN(C)c1ccc2c(=O)n(CCN(C)C)c(=O)n3c4ccccc4c(=O)c1c23 | 8.34
O=C(CCc1ccc(O)c(O)c1)NCCc1cc(O)cc(O)c1 | > 100
Cc1nn(C(=O)c2ccc(Cl)cc2)c2c1C(c1ccccc1[N+](=O)[O-])SC(N)=N2 (configuration not stated) | > 10
C=CCc1cccc2cc(C(=O)Nc3ccccc3)c(=N)oc12 | > 100

system: UACC-62 melanoma; assay: DTP human tumour cell line panel, 48 h

Structure (SMILES) | TGI [µM]
CN(C)C(=S)/N=c1\ssc(=S)n1Cc1ccccc1 | 16.8
Cn1c(O)c(C=Nc2ccccc2[N+](=O)[O-])c(=O)n(C)c1=O | > 100
COc1cc(-c2cc(-c3ccccc3)nc(-c3c(OC)ccc4c(C)cc(=O)oc34)c2)cc(OC)c1OC | > 100
CCOC(=O)c1nc2ccccc2nc1NCc1cc(OC)c(OC)c(OC)c1 | > 100
C[C@H](NC(=O)c1ccc(CNC(=O)/C=C/c2cccc(Oc3ccccc3)c2)cc1)c1ccccc1 | > 100
CCN(CC)/C(Sc1ccccc1)=C(\C(Cl)=C(Cl)Cl)[N+](=O)[O-] | 43.7
Brc1cc(CCOC2CCCCO2)c(-c2sccc2CCOC2CCCCO2)s1 (configuration not stated) | > 100
CC(C)=CCC/C(=C/CC/C(=C\CCc1ccoc1)C(=O)O)C(=O)O | > 100
CCCCc1ccc(Nc2nc(SC)c3[nH]cnc3n2)cc1 | > 100
Cc1cccc(CP(Cc2cccc(C)c2)CC2(Cp3c4ccccc4c4ccccc43)COC2)c1 | > 100
COc1cc(OC)nc(-n2c(N)c(C#N)c3ccc([N+](=O)[O-])cc3c2=O)n1 | > 100
COC(=O)c1sc(=S)sc1SCc1ccc(CSc2sc(=S)sc2C(=O)OC)cc1 | > 100
CCOC(=O)c1cn2c(n1)sc1c(Cl)c(Cl)ccc12 | > 100
CN1CCN(c2ncc3c(n2)sc2c(=O)n(-c4ccccc4)cnc23)CC1 | > 100
COc1ccc(C(=O)c2sc(Nc3ccc(Cl)cc3)nc2N)cc1 | > 100
Cc1cn(C2CC(O)C(COC(=O)NCCC(F)(F)C(F)(F)C(F)(F)C(F)(F)F)O2)c(=O)[nH]c1=O (configuration not stated) | > 100
CC(C)(C)OC(=O)N1CCC(C(=O)O)CC1 | > 100
C/C=C\C(CC(=O)NCCC1CN(S(=O)(=O)c2ccc(C)cc2)c2ccccc21)CC(=O)OC (configuration not stated) | > 100
CN(C)CCN(C)c1ccc2c(=O)n(CCN(C)C)c(=O)n3c4ccccc4c(=O)c1c23 | 2.6
O=C(CCc1ccc(O)c(O)c1)NCCc1cc(O)cc(O)c1 | > 100
Cc1nn(C(=O)c2ccc(Cl)cc2)c2c1C(c1ccccc1[N+](=O)[O-])SC(N)=N2 (configuration not stated) | > 10
C=CCc1cccc2cc(C(=O)Nc3ccccc3)c(=N)oc12 | > 100

system: NCI-H522 lung; assay: DTP human tumour cell line panel, 48 h

Structure (SMILES) | TGI [µM]
CN(C)C(=S)/N=c1\ssc(=S)n1Cc1ccccc1 | 0.617
Cn1c(O)c(C=Nc2ccccc2[N+](=O)[O-])c(=O)n(C)c1=O | > 100
COc1cc(-c2cc(-c3ccccc3)nc(-c3c(OC)ccc4c(C)cc(=O)oc34)c2)cc(OC)c1OC | > 100
CCOC(=O)c1nc2ccccc2nc1NCc1cc(OC)c(OC)c(OC)c1 | > 100
C[C@H](NC(=O)c1ccc(CNC(=O)/C=C/c2cccc(Oc3ccccc3)c2)cc1)c1ccccc1 | > 100
CCN(CC)/C(Sc1ccccc1)=C(\C(Cl)=C(Cl)Cl)[N+](=O)[O-] | 33.3
Brc1cc(CCOC2CCCCO2)c(-c2sccc2CCOC2CCCCO2)s1 (configuration not stated) | > 69.6
CC(C)=CCC/C(=C/CC/C(=C\CCc1ccoc1)C(=O)O)C(=O)O | > 100
CCCCc1ccc(Nc2nc(SC)c3[nH]cnc3n2)cc1 | > 100
Cc1cccc(CP(Cc2cccc(C)c2)CC2(Cp3c4ccccc4c4ccccc43)COC2)c1 | > 85.8
COc1cc(OC)nc(-n2c(N)c(C#N)c3ccc([N+](=O)[O-])cc3c2=O)n1 | 55.4
COC(=O)c1sc(=S)sc1SCc1ccc(CSc2sc(=S)sc2C(=O)OC)cc1 | > 100
CCOC(=O)c1cn2c(n1)sc1c(Cl)c(Cl)ccc12 | 43.4
CN1CCN(c2ncc3c(n2)sc2c(=O)n(-c4ccccc4)cnc23)CC1 | > 100
COc1ccc(C(=O)c2sc(Nc3ccc(Cl)cc3)nc2N)cc1 | 33.9
Cc1cn(C2CC(O)C(COC(=O)NCCC(F)(F)C(F)(F)C(F)(F)C(F)(F)F)O2)c(=O)[nH]c1=O (configuration not stated) | > 100
CC(C)(C)OC(=O)N1CCC(C(=O)O)CC1 | > 100
C/C=C\C(CC(=O)NCCC1CN(S(=O)(=O)c2ccc(C)cc2)c2ccccc21)CC(=O)OC (configuration not stated) | > 100
CN(C)CCN(C)c1ccc2c(=O)n(CCN(C)C)c(=O)n3c4ccccc4c(=O)c1c23 | 2.8
